pIC50: −log10 of the molar value. Like-named read-outs stand apart in the source and are kept apart here.
Key:
[1] = target: CYP 3A4 enzyme in human liver microsomes (Homo sapiens, UniProt P08684); assay: CYP3A4 inhibition experiment in human liver microsomes
Method: The inhibitory effects of the test compounds on CYP 3A4T (with testosterone as substrate) and 3A4M (with midazolam as substrate) in human liver microsomes were evaluated in vitro to assess the medication safety of the compounds.
This study used the human liver microsome system and the cytochrome P450 enzyme probe substrate recommended by FDA guidelines for in vitro drug interaction studies to investigate the inhibition of the CYP 3A4 enzyme in human liver microsomes by the test compounds.
Test group (TG): Human liver microsomes were incubated with different concentrations of test compounds, NADPH (final concentration 2.00 mM) and probe substrates of different sub-enzymes (Table 4) for 5 min.
Positive control group (PC): Human liver microsomes were incubated with inhibitors (Table 4), NADPH (final concentration 2.00 mM) and probe substrates of different sub-enzymes (Table 4) for 5 min. Table 4 Probe substrates of sub-enzymes, inhibitors and incubation systems
The system was pre-incubated at 37°C for 5 min, and then 15 µL of 8 mM NADPH solution preheated at 37°C for 5-10 min to start the reaction. After incubation of the 96-well plate at 37°C for 5 min, 180 µL of acetonitrile:methanol (ACN:MeOH=1:1) solution containing internal standard (IS) was added to terminate the reaction. […] 80 µL of the supernatant was taken, added to 120 µL of ultrapure water, shaken evenly, and then detected by LC-MS/MS.
199 µL of 0.2 mg/mL HLM and 1 µL of 1 mM positive control inhibitor (ketoconazole) working solutions were taken and mixed evenly. 30 µL of the drug-containing liver microsome solution was taken and added to a 96-well plate, then 10 µL of substrate working solution (20 µM midazolam) was added, in duplicate. The system was pre-incubated at 37°C for 5 min, and then 15 µL of 8 mM NADPH solution preheated at 37°C for 5-10 min to start the reaction. After incubation of the 96-well plate at 37°C for 5 min, 180 µL of ACN:MeOH(1:1) solution containing IS was added to terminate the reaction. […] 80 µL of the supernatant was taken, added to 120 µL of ultrapure water, shaken evenly, and then detected by LC-MS/MS.
4.2.5.1 The relative activity of CYP450 sub-enzymes at different concentrations was calculated by dividing the peak area ratio (analyte peak area/internal standard peak area) of metabolites in the presence of the test sample or positive control by the peak area ratio of metabolites in the solvent control sample in the absence of the test article or positive control, according to the following formula: [formula] [formula]
4.2.5.2 Half maximal inhibitory concentration (IC50) was obtained by fitting according to the following model formula using Prism software: Y = Bottom + (Top−Bottom)/(1+10^(∧)((LogIC50−X)×HillSlope)) [formula]
X is the test sample concentration converted to logarithm (Log µM), Y is the relative activity (% of NC), Bottom and Top represent the percentage of enzyme activity at the bottom platform and top platform of the curve, respectively, and HillSlope represents the slope; to optimize the fitting effect, the use of other (nonlinear) dose-response models for fitting is not considered as a deviation from the protocol.

[2] = tested on: NUGC-3 cells; assay: NUGC-3 cell proliferation assay (CTG, 7 days); assay type: cell-based, human
Outline: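 Cells (200/well) in 1640 medium with 10% serum exposed to 10-point, 3-fold DMSO dilutions (duplicates) for 7 days at 37°C. Viability read by CellTiter-Glo luminescence; % inhibition normalized to DMSO and blank, IC50 from variable-slope nonlinear fit.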

[3] = target: T1, p53-Y220C mutant protein (Homo sapiens, UniProt P04637, Y220C); assay: In vitro DNA binding activity assay (TR-FRET); assay type: biochemical; settings: concentration required to increase the binding activity of protein to DNA by 50%
T1 construct: The recombinant Y220C p53 DBD protein with his-tag
Outline: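 His-tagged Y220C p53 DBD was equilibrated with compound 60 min at room temperature, then biotin-DNA, anti-6His-Eu and streptavidin-d2 were added and incubated overnight in the dark. TR-FRET 665/615 nm ratio, background-corrected, was expressed as % activity versus vehicle; SC150 is the concentration raising DNA binding by 50%.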

[4] = CYP 3A4M IC50, human liver microsomes, midazolam as substrate
[5] = CYP 3A4T IC50, human liver microsomes, testosterone as substrate
[6] = Homo sapiens, NUGC-3, 168 h, NUGC-3 cell proliferation, 7 days, CTG, read-out: IC50

Sequence of CYP 3A4 enzyme in human liver microsomes (P08684 whole entry): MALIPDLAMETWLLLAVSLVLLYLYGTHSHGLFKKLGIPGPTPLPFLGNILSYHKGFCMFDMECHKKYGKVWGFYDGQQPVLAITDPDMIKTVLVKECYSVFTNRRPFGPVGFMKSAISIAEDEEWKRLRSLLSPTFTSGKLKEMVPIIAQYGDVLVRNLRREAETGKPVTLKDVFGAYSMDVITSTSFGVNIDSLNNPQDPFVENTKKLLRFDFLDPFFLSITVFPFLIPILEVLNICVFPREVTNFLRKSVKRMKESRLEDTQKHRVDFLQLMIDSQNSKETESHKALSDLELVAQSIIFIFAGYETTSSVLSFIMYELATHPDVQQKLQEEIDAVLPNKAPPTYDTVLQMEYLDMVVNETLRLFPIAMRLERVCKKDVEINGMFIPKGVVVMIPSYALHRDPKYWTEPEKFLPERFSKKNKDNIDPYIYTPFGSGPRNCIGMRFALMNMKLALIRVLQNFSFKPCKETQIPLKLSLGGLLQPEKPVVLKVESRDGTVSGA

| SMILES | pIC50 [1, 4] | pIC50 [1, 5] | SC150 [3] | pIC50 [2, 6] | pIC50 ([2]; NUGC-3 cell proliferation, 7 days, CTG, read-out: IC50) | pIC50 ([2]; Homo sapiens, NUGC-3, 168 h) |
| --- | --- | --- | --- | --- | --- | --- |
| CCn1cc(C(=O)NCC#Cc2nn3c(N[C@@H]4CCN(C)C[C@@H]4F)cccc3c2CC(F)(F)F)cn1 [Compound 004, 1-ethyl-N-[3-(7-{[(3S,4R)-3-fluoro-1-methylpiperidin-4-yl]amino}-3-(2,2,2-trifluoroethyl)pyrazolo[1,5-a]pyridin-2-yl)prop-2-yn-1-yl]-1H-pyrazole-4-carboxamide] | < 4.52 | < 4.52 | 6 nM | – | – | – |
| COC(C)(C)Cn1cc(C(=O)NCC#Cc2nn3c(N[C@@H]4CCN(C)C[C@@H]4F)cccc3c2CC(F)(F)F)cn1 [Compound 039, N-[3-(7-{[(3S,4R)-3-fluoro-1-methylpiperidin-4-yl]amino}-3-(2,2,2-trifluoroethyl)pyrazolo[1,5-a]pyridin-2-yl)prop-2-yn-1-yl]-1-(2-methoxy-2-methylpropyl)-1H-pyrazole-4-carboxamide] | 4.69 | 4.56 | 10 nM | – | – | – |
| CN1CC[C@@H](Nc2cccc3c(CC(F)(F)F)c(C#CCNC(=O)c4ccn(C(C)(C)C)c4)nn23)[C@@H](F)C1 [Compound 087, 1-(tert-butyl)-N-(3-(7-{[(3S,4R)-3-fluoro-1-methylpiperidin-4-yl]amino}-3-(2,2,2-trifluoroethyl)pyrazolo[1,5-a]pyridin-2-yl)prop-2-yn-1-yl)-1H-pyrrole-3-carboxamide] | < 4.52 | < 4.52 | 19 nM | 5.86 | – | – |
| CN1CC[C@@H](Nc2cccc3c(CC(F)(F)F)c(C#CCNC(=O)c4cnn5c4CC(C)(C)C5)nn23)[C@@H](F)C1 [Compound 146, N-[3-(7-{[(3S,4R)-3-fluoro-1-methylpiperidin-4-yl]amino}-3-(2,2,2-trifluoroethyl)pyrazolo[1,5-a]pyridin-2-yl)prop-2-yn-1-yl]-5,5-dimethyl-5,6-dihydro-4H-pyrrolo[1,2-b]-1Hpyrazole-3-carboxamide] | 5.01 | 4.98 | 13 nM | – | – | 6.02 |
| CN1CC[C@@H](Nc2cccc3c(CC(F)(F)F)c(C#CCNC(=O)c4cnn(C5(C)CC5)c4N)nn23)[C@@H](F)C1 [Compound 263, 5-amino-N-[3-(7-{[(3S,4R)-3-fluoro-1-methylpiperidin-4-yl]amino}-3-(2,2,2-trifluoroethyl)pyrazolo[1,5-a]pyridin-2-yl)prop-2-yn-1-yl]-1-(1-methylcyclopropyl)-1H-pyrazole-4-carboxamide] | < 4.52 | 4.79 | 4 nM | 6.57 | – | – |
| CN1CC[C@@H](Nc2cccc3c(CC(F)(F)F)c(C#CCNC(=O)c4cnn5c4COCC5)nn23)[C@@H](F)C1 [Compound 274, N-[3-(7-{[(3S,4R)-3-fluoro-1-methylpiperidin-4-yl]amino}-3-(2,2,2-trifluoroethyl)pyrazolo[1,5-a]pyridin-2-yl)prop-2-yn-1-yl]-6,7-dihydro-4H-pyrazolo[5,1-c][1,4]oxazine-3-carboxamide] | < 4.52 | < 4.52 | 12 nM | 6.21 | – | – |
| CN1CC[C@@H](Nc2cccc3c(CC(F)(F)F)c(C#CCNC(=O)c4ccc(N5CCOCC5)nc4)nn23)[C@@H](F)C1 [Compound 275, N-[3-(7-{[(3S,4R)-3-fluoro-1-methylpiperidin-4-yl]amino}-3-(2,2,2-trifluoroethyl)pyrazolo[1,5-a]pyridin-2-yl)prop-2-yn-1-yl]-(6-morpholin-4-yl)pyridine-3-carboxamide] | < 4.52 | < 4.52 | 27 nM | 6.05 | – | – |
| CN1CC[C@@H](Nc2cccc3c(CC(F)(F)F)c(C#CCNC(=O)c4cnn5c4CCCC5)nn23)[C@@H](F)C1 [Compound 276, N-[3-(7-{[(3S,4R)-3-fluoro-1-methylpiperidin-4-yl]amino}-3-(2,2,2-trifluoroethyl)pyrazolo[1,5-a]pyridin-2-yl)prop-2-yn-1-yl]-4,5,6,7-tetrahydropyrazolo[1,5-a]pyridine-3-carboxamide] | 4.76 | < 4.52 | 18 nM | 6.07 | – | – |
| CCn1ccc(C(=O)NCC#Cc2nn3c(N[C@@H]4CCN(C)C[C@@H]4F)cccc3c2CC(F)(F)F)c1 [Compound 277, 1-ethyl-N-[3-(7-{[(3S,4R)-3-fluoro-1-methylpiperidin-4-yl]amino}-3-(2,2,2-trifluoroethyl)pyrazolo[1,5-a]pyridin-2-yl)prop-2-yn-1-yl]-1H-pyrrole-3-carboxylic acid amide] | 4.91 | 4.80 | 14 nM | – | – | 6.14 |
| Cc1cc(C(=O)NCC#Cc2nn3c(N[C@@H]4CCN(C)C[C@@H]4F)cccc3c2CC(F)(F)F)co1 [Compound 278, N-[3-(7-{[(3S,4R)-3-fluoro-1-methylpiperidin-4-yl]amino}-3-(2,2,2-trifluoroethyl)pyrazolo[1,5-a]pyridin-2-yl)prop-2-yn-1-yl]-5-methylfuran-3-carboxamide] | 4.83 | 4.89 | 24 nM | 5.95 | – | – |
| CCC(C)(C)n1ncc(C(=O)NCC#Cc2nn3c(N[C@@H]4CCN(C)C[C@@H]4F)cccc3c2CC(F)(F)F)c1N [Compound 351] | 4.74 | 4.66 | 7 nM | – | – | – |

Further lines, with some results ahead:

| pIC50 [1, 4] | pIC50 [1, 5] | SC150 [3] | SMILES | pIC50 [2, 6] | pIC50 ([2]; NUGC-3 cell proliferation, 7 days, CTG, read-out: IC50) | pIC50 ([2]; Homo sapiens, NUGC-3, 168 h) |
| --- | --- | --- | --- | --- | --- | --- |
| < 4.52 | 4.85 | 7 nM | CC(n1ncc(C(=O)NCC#Cc2nn3c(N[C@@H]4CCN(C)C[C@@H]4F)cccc3c2CC(F)(F)F)c1N)C(F)(F)F (single isomer, unassigned) [Compound 355A] | 6.78 | – | – |
| 4.90 | 4.86 | 16 nM | CC(n1ncc(C(=O)NCC#Cc2nn3c(N[C@@H]4CCN(C)C[C@@H]4F)cccc3c2CC(F)(F)F)c1N)C(F)(F)F (single isomer, unassigned) [Compound 355B] | – | 6.81 | – |
| 4.74 | 4.61 | 9 nM | COCCn1ccc(C(=O)NCC#Cc2nn3c(N[C@@H]4CCN(C)C[C@@H]4F)cccc3c2CC(F)(F)F)c1 [Compound 279, N-[3-(7-{[(3S,4R)-3-fluoro-1-methylpiperidin-4-yl]amino}-3-(2,2,2-trifluoroethyl)pyrazolo[1,5-a]pyridin-2-yl)prop-2-yn-1-yl]-1-(methoxyethyl)-1H-pyrrole-3-carboxamide] | 6.17 | – | – |
| – | – | 9 nM | CC(C)(C)n1ncc(C(=O)NCC#Cc2nn3c(N[C@@H]4CCNC[C@@H]4F)cccc3c2CC(F)(F)F)c1N [Compound 353-4, 5-amino-1-tert-butyl-N-[3-(7-{[(3S,4R)-3-fluoropiperidin-4-yl]amino}-3-(2,2,2-trifluoroethyl)pyrazolo[1,5-a]pyridin-2-yl)prop-2-yn-1-yl]-1H-pyrazole-4-carboxamide] | 6.74 | – | – |
| – | – | 5 nM | CCN1CC[C@@H](Nc2cccc3c(CC(F)(F)F)c(C#CCNC(=O)c4cnn(C(C)C)c4N)nn23)[C@@H](F)C1 [Compound 365, 5-amino-N-(3-(7-{[(3S,4R)-1-ethyl-3-fluoropiperidin-4-yl]amino}-3-(2,2,2-trifluoroethyl)pyrazolo[1,5-a]pyridin-2-yl)prop-2-yn-1-yl)-1-isopropyl-1H-pyrazole-4-carboxamide] | 6.90 | – | – |

— EP4737449A1 (Changchun Genescience Pharmaceutical Co., Ltd., priority 2023, dated 2025)
